Like-named read-outs stand apart in the source and are kept apart here.
What was measured:
[1] = Plasma nutrikinetics of flavanol metabolites after a single serving of soluble cocoa product (HPLC-ESI-QToF-MS); format: in vivo, human; conditions: for AUC: human plasma 0-8 h; for AUC / Tmax / Cmax: mean ± SD, n = 13; for Tmax / Cmax: human plasma; for Cmax: read-out: Cmax; for Detection of un-metabolized compound in the collected biological fluids: plasma and urine, CC and CC-PP
Experimental: The study was carried out in thirteen healthy subjects (3 men and 10 women); the mens’ average age and body mass index were 26.67 ± 3.21 year and 22.47 ± 2.97 kg/m^2, respectively, and womens’ were 32.60 ± 9.85 year and 23.36 ± 3.73 kg/m^2, respectively. They were non-smoker, non-vegetarian, non-pregnant women, who were not taking any medication or nutritional supplements, and were not suffering from any chronic pathology or gastrointestinal disorder. The sample size was estimated attending to similar previous bioavailability studies. The volunteers gave their informed consent prior to participation.
The present randomized, single-blind study was carried out at the Human Nutrition Unit (HNU) of the Institute of Food Science, Technology and Nutrition (ICTAN). Volunteers attended the HNU on two days, separated by two weeks. Three days previous to each visit, participants were instructed not to consume cocoa products (chocolate, soluble cocoa, etc.), juices, tea, wine, grape must, oranges, tangerines, apples, grapes, strawberries or other berries, beets, onions, soybeans and soy derivatives. In addition, volunteers were asked to complete a 24 h food intake recall the day before they attended the HNU in order to monitor any possible food restriction incompliance.
On each intervention day, volunteers arrived at the HNU after an overnight fast. Prior to the intake of the soluble cocoa product, a nurse inserted a cannula in the cubital vein of the non-prevailing arm of the volunteers and blood samples were collected into EDTA-coated tubes at baseline (t = 0) and 0.5, 1, 2, 3, 4, 6, and 8 h after consuming the corresponding cocoa product. The soluble cocoa products, either 15 g of CC or 25 g CC-PP, were dissolved in 200 mL of semi-skimmed milk following manufacturer’s preparation instructions. Plasma was separated by centrifugation (10 min, 3000 rpm, 4 °C) and stored at −80 °C until further analysis. Urine samples were collected at different time intervals (t = −2–0, 0–4, 4–8, 8–12, and 12–24 h) in urine collection flasks that contained 0.5 g of ascorbic acid as preservative and were aliquoted and frozen at −20 °C until analysis. A polyphenol-free breakfast, lunch and afternoon snack were provided 2 h, 4 h, and 8 h after consumption of cocoa products, and water and isotonic beverages were available ad libitum.
A liquid–liquid extraction and protein precipitation with acetonitrile was used to isolate metabolites from plasma. A 1 mL defrosted plasma sample was mixed with 50 μL of ascorbic acid (0.2 g/mL). After vortexing the aqueous mixture, it was added drop wise to 750 μL of cold acetonitrile and vortexed for 2 min before centrifuging at 12,000 rpm for 10 min at 4 °C. The supernatant was separated, and the pellet was re-extracted twice more following the same procedure. Supernatants were combined and reduced to dryness under a stream of nitrogen at 30 °C. The dried samples were resuspended in 150 μL of aqueous formic acid (0.1%) containing 10% acetonitrile acidified with 0.1% formic acid and centrifuged at 4 °C for 20 min at 14,000 rpm. The final supernatant was collected, filtered (0.45 μm pore-size, cellulose-acetate membrane filters, Albet, Dassel (Germany)) and 30 μL were analyzed by high-performance liquid chromatography coupled to electrospray ionisation and quadrupole time-of-flight mass spectrometry (HPLC-ESI-QToF-MS).
Analyses were performed on an Agilent 1200 series LC system coupled to an Agilent 6530A Accurate-Mass Quadrupole Time-Of-Flight (Q-ToF) with ESI-Jet Stream Technology (Agilent Technologies). Compounds were separated on a reverse-phase Ascentis Express C18 (15 cm × 3 mm, […]) column (Sigma-Aldrich Química, Madrid) preceded by a Supelco 55215-U guard column at 30 °C. […]

[2] = Urinary excretion of flavanol metabolites (0-24 h) after a single serving of soluble cocoa product (HPLC-ESI-QToF-MS); format: in vivo, human; conditions: mean ± SD, n = 13; for Excreted in urine, Basal: basal urine (−2–0 h, before intake); for Excreted in urine, Total: 24 h urine
Experimental: They were non-smoker, non-vegetarian, non-pregnant women, who were not taking any medication or nutritional supplements, and were not suffering from any chronic pathology or gastrointestinal disorder. The sample size was estimated attending to similar previous bioavailability studies. The volunteers gave their informed consent prior to participation.
The present randomized, single-blind study was carried out at the Human Nutrition Unit (HNU) of the Institute of Food Science, Technology and Nutrition (ICTAN). Volunteers attended the HNU on two days, separated by two weeks. Three days previous to each visit, participants were instructed not to consume cocoa products (chocolate, soluble cocoa, etc.), juices, tea, wine, grape must, oranges, tangerines, apples, grapes, strawberries or other berries, beets, onions, soybeans and soy derivatives.
On each intervention day, volunteers arrived at the HNU after an overnight fast. […] The soluble cocoa products, either 15 g of CC or 25 g CC-PP, were dissolved in 200 mL of semi-skimmed milk following manufacturer’s preparation instructions. Plasma was separated by centrifugation (10 min, 3000 rpm, 4 °C) and stored at −80 °C until further analysis. […] A polyphenol-free breakfast, lunch and afternoon snack were provided 2 h, 4 h, and 8 h after consumption of cocoa products, and water and isotonic beverages were available ad libitum.
Urine samples were diluted with an equivalent volume of Milli-Q water (50%) and centrifuged at 14000 rpm (10 min, 4 °C). Supernatants were filtered (0.45 μm pore-size cellulose-acetate membrane filters) and a 5 µL aliquot was directly injected into the LC-ESI-QToF-MS equipment.
The test samples, either 30 μL of the plasma extract or 5 μL of diluted urine, were injected and separated using a mobile phase consisting of Milli-Q water (phase A) and acetonitrile (phase B), both containing 0.1% formic acid, at a flow rate of 0.3 mL/min. The mobile phase was initially programmed with 90% of solvent A and 10% of B. The elution program increased to 30% of solvent B in 10 min. Then, the initial conditions (10% solvent B) were recovered in 5 min and maintained for 5 min.
Due to the lack of standards for certain phase II metabolites, they were tentatively quantified using the calibration curves of their corresponding phenolic precursors. […] The rest of microbial metabolites identified, derivatives of hydroxyphenylpropionic, hydroxyphenylacetic, hydroxybenzoic and hippuric acids, were quantified using their respective commercially available standards. Urine concentration of the excreted metabolites was normalized by the volume excreted in each studied interval. […] Calibration curves were freshly prepared in a pool of both plasma and urine due to matrix effects.
Statistical analyses were carried out using the program SPSS (version 23.0, SPSS, Inc., IBM Company, New York, NY, USA). Significant differences between metabolites excreted in urine after consumption of CC and CC-PP cocoa products were evaluated based on non-parametric Wilcoxon test (p < 0.05). To determine the absorption and elimination of epicatechin metabolites after consumption of the soluble cocoa products, metabolite nutrikinetics were studied using the pharmacokinetic functions of Microsoft Excel, calculating the maximum concentration (Cmax), area under curve (AUC) and time to reach maximum concentration (Tmax). Data are expressed as mean ± standard deviation.

[3] = after CC-PP (68.25 mg flavanols)

| Molecule | AUC ([1]; after CC (19.80 mg flavanols)) | AUC [1, 3] | Tmax ([1]; after CC (19.80 mg flavanols)) [h] | Cmax ([1]; after CC (15 g in 200 mL semi-skimmed milk, 19.80 mg flavanols)) [nM] | Tmax [1, 3] [h] | Cmax ([1]; after CC-PP (25 g in 200 mL semi-skimmed milk, 68.25 mg flavanols)) [nM] | Excreted in urine, Basal ([2]; CC intervention) [µmol] | Excreted in urine, Basal ([2]; CC-PP intervention) | Excreted in urine, Total ([2]; after CC (19.80 mg flavanols)) | Excreted in urine, 0–4 h ([2]; after CC (19.80 mg flavanols)) | Excreted in urine, 4–8 h ([2]; after CC (19.80 mg flavanols)) | Excreted in urine, 8–12 h ([2]; after CC (19.80 mg flavanols)) [µmol] | Excreted in urine, 12–24 h ([2]; after CC (19.80 mg flavanols)) [µmol] | Excreted in urine, Total [2, 3] [µmol] | Excreted in urine, 0–4 h [2, 3] [µmol] | Excreted in urine, 4–8 h [2, 3] | Excreted in urine, 8–12 h [2, 3] | Excreted in urine, 12–24 h [2, 3] [µmol] | Detection of un-metabolized compound in the collected biological fluids [1] |
| --- | --- | --- | --- | --- | --- | --- | --- | --- | --- | --- | --- | --- | --- | --- | --- | --- | --- | --- | --- |
| 5-Phenyl-γ-valerolactone-methoxy-glucuronide [PVL-methoxy-glucuronide] | 0.078 ± 0.032 | 0.091 ± 0.059 | 5.3 ± 1.0 | 22 ± 1 | 5.6 ± 1.3 | 27 ± 3 |  |  |  |  |  |  |  |  |  |  |  |  |  |
| COc1ccc(/C=C/C(=O)O)cc1O [Isoferulic acid] |  |  |  |  |  |  | 0.170 ± 0.137 | <L.Q. | 0.522 ± 0.290 µmol | 0.086 ± 0.028 µmol | 0.096 ± 0.040 µmol | 0.088 ± 0.069 | 0.082 ± 0.016 | 0.686 ± 0.356 | 0.164 ± 0.044 | 0.160 ± 0.066 µmol | 0.152 ± 0.094 µmol | 0.210 ± 0.152 |  |
| O=C1CCC(Cc2cccc(OC3OC(C(=O)O)C(O)C(O)C3O)c2)O1 (centres unmarked) [PVL-3′glucuronide, 5-Phenyl-γ-valerolactone-3′-glucuronide] |  |  |  |  |  |  |  | <L.Q. | 0.438 ± 0.255 µmol | <L.Q. | 0.233 ± 0.155 µmol | 0.126 ± 0.078 | 0.079 ± 0.022 | 1.316 ± 0.648 | 0.108 ± 0.045 | 0.521 ± 0.191 µmol | 0.179 ± 0.063 µmol | 0.508 ± 0.349 |  |
| O=C(O)c1ccc(O)c(O)c1 [Protocatechuic acid, 3,4-Dihydroxybenzoic acid] |  |  |  |  |  |  | 0.161 ± 0.071 | 0.088 ± 0.014 µmol | 0.959 ± 0.217 µmol | 0.227 ± 0.142 µmol | 0.373 ± 0.237 µmol | 0.094 ± 0.047 | 0.104 ± 0.044 | 0.528 ± 0.105 | 0.105 ± 0.016 | 0.113 ± 0.020 µmol | 0.095 ± 0.040 µmol | 0.127 ± 0.015 |  |
| O.Oc1cc(O)c2c(c1)O[C@H](c1ccc(O)c(O)c1)[C@@H](O)C2 [catechin] |  |  |  |  |  |  |  |  |  |  |  |  |  |  |  |  |  |  | Neither un-metabolized epicatechin and catechin nor procyanidins B1 and B2 were detected |
| Oc1cc(O)c2c(c1)O[C@H](c1ccc(O)c(O)c1)[C@H](O)[C@H]2c1c(O)cc(O)c2c1O[C@H](c1ccc(O)c(O)c1)[C@@H](O)C2 [procyanidins B1, procyanidin B1] |  |  |  |  |  |  |  |  |  |  |  |  |  |  |  |  |  |  | Neither un-metabolized epicatechin and catechin nor procyanidins B1 and B2 were detected |
| Epicatechin-3′-methoxy-glucuronide |  |  |  |  |  |  |  |  | <L.Q. * | <L.Q. | <L.Q. |  |  | 0.121 ± 0.036 | 0.121 ± 0.036 | <L.Q. | <L.Q. |  |  |
| Hydroxybenzoic acid [Hidroxybenzoic acid] |  |  |  |  |  |  | 0.188 ± 0.041 | 0.212 ± 0.037 µmol | 0.798 ± 0.162 µmol | 0.145 ± 0.027 µmol | 0.200 ± 0.051 µmol | 0.070 ± 0.018 | 0.195 ± 0.025 | 1.380 ± 0.365 | 0.396 ± 0.060 | 0.298 ± 0.036 µmol | 0.172 ± 0.063 µmol | 0.302 ± 0.169 |  |
